Measured values reported in publication PMC8379219 (Nature Communications, 2021).
Where “and” joins values, the source holds several entries; their conditions need not be identical. Equal entries are not always repeated.

How the values were obtained:
[1] = target: T1, SERT WT (Homo sapiens, UniProt P31645); test: [3H]IMI dissociation rate assay (allosteric potency), COS-7 membranes;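 for all read-outs here: radioligand pre-bound 30 min at room temperature to equilibrium, then dissociation followed over 5–70 min, ended by filtration through GF/B filters, at least three independent experiments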; assay type: binding; design: expressed in transfected cells; host or cells: COS-7; settings: for VLZ Allosteric Potency SERT WT, [3H]IMI dissociation (Fig. 2C): ctrl = 1, replicates
[2] = target: T1, SERT WT; test: [3H]5-HT saturation uptake with increasing VLZ concentrations, COS-7 cells;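 for all read-outs here: transfected cells assayed 2 days post-transfection, 3 min uptake period, accumulated radioactivity counted in cell lysates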; assay type: cell-based; design: expressed in transfected cells; host or cells: COS-7; [3H]5-HT uptake (Fig. 2A [3H]5-HT Vmax):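 percent of the 5-HT Vmax measured without VLZ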; settings: for [3H]5-HT uptake (Fig. 2A [3H]5-HT Vmax): replicates

T1 sequence (P31645 whole entry): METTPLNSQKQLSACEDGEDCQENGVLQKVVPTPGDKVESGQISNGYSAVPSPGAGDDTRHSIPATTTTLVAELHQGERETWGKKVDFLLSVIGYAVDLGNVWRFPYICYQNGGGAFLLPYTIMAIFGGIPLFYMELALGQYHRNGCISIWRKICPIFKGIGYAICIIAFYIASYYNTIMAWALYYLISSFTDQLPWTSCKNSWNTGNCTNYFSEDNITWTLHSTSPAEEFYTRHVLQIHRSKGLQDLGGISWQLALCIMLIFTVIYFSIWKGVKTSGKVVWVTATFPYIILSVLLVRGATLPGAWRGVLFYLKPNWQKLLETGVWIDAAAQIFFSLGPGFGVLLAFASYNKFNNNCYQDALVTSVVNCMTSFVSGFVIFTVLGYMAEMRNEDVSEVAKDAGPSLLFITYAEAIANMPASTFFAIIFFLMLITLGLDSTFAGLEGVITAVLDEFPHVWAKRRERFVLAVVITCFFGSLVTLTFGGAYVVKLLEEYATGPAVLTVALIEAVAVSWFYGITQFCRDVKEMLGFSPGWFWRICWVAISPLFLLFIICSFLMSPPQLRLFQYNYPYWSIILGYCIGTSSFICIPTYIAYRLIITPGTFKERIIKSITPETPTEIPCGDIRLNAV

N#Cc1ccc2[nH]cc(CCCCN3CCN(c4ccc5oc(C(N)=O)cc5c4)CC3)c2c1 [VLZ, Vilazodone]
[3H]IMI dissociation (Fig. 2B) ([1]; 1.6 nM, time 30 min): 88.3693 | [3H]IMI dissociation (Fig. 2B) ([1]; 1.6 nM, time 50 min): 82.8483 | [3H]IMI dissociation (Fig. 2B) ([1]; 1.6 nM, time 70 min): 74.8875 | [3H]IMI dissociation (Fig. 2B) ([1]; 5.0 nM, time 5 min): 97.5709 | [3H]IMI dissociation (Fig. 2B) ([1]; 5.0 nM, time 10 min): 97.4425 | [3H]IMI dissociation (Fig. 2B) ([1]; 5.0 nM, time 20 min): 93.3593 | [3H]IMI dissociation (Fig. 2B) ([1]; 5.0 nM, time 30 min): 90.4506 | [3H]IMI dissociation (Fig. 2B) ([1]; 5.0 nM, time 50 min): 84.3631 | [3H]IMI dissociation (Fig. 2B) ([1]; 5.0 nM, time 70 min): 76.3943 | [3H]IMI dissociation (Fig. 2B) ([1]; 14 nM, time 5 min): 98.3663 | [3H]IMI dissociation (Fig. 2B) ([1]; 14 nM, time 10 min): 97.4617 | [3H]IMI dissociation (Fig. 2B) ([1]; 14 nM, time 15 min): 95.8874 | [3H]IMI dissociation (Fig. 2B) ([1]; 14 nM, time 20 min): 96.0081 | [3H]IMI dissociation (Fig. 2B) ([1]; 14 nM, time 30 min): 92.2894 | [3H]IMI dissociation (Fig. 2B) ([1]; 14 nM, time 50 min): 89.4282 | [3H]IMI dissociation (Fig. 2B) ([1]; 14 nM, time 70 min): 81.9514 | [3H]IMI dissociation (Fig. 2B) ([1]; 41 nM, time 5 min): 97.9849 | [3H]IMI dissociation (Fig. 2B) ([1]; 41 nM, time 10 min): 98.4954 | [3H]IMI dissociation (Fig. 2B) ([1]; 41 nM, time 15 min): 97.2116 | [3H]IMI dissociation (Fig. 2B) ([1]; 41 nM, time 20 min): 97.5521 | [3H]IMI dissociation (Fig. 2B) ([1]; 41 nM, time 30 min): 96.6684 | [3H]IMI dissociation (Fig. 2B) ([1]; 41 nM, time 50 min): 94.4925 | [3H]IMI dissociation (Fig. 2B) ([1]; 41 nM, time 70 min): 87.7012 | VLZ Allosteric Potency SERT WT, [3H]IMI dissociation (Fig. 2C) ([1]; Log[VLZ] (M) -4): 0 | VLZ Allosteric Potency SERT WT, [3H]IMI dissociation (Fig. 2C) ([1]; Log[VLZ] (M) -5.9101): 0.1027 and 0.08972 and 0.1662 and 0.1172 and 0.01147 | VLZ Allosteric Potency SERT WT, [3H]IMI dissociation (Fig. 2C) ([1]; Log[VLZ] (M) -6.38561): 0.0801 and 0.09017 and 0.06116 and 0.2108 and 0.1226 and 0.07783 and 0.1748 and 0.1023 | VLZ Allosteric Potency SERT WT, [3H]IMI dissociation (Fig. 2C) ([1]; Log[VLZ] (M) -6.86273): 0.1665 and 0.2014 and 0.09755 and 0.4073 and 0.1925 and 0.0796 and 0.2088 and 0.1328 | VLZ Allosteric Potency SERT WT, [3H]IMI dissociation (Fig. 2C) ([1]; Log[VLZ] (M) -7.33985): 0.3329 and 0.2727 and 0.2322 and 0.5054 and 0.3314 and 0.3281 and 0.2598 and 0.3035 and 0.2526 | VLZ Allosteric Potency SERT WT, [3H]IMI dissociation (Fig. 2C) ([1]; Log[VLZ] (M) -7.81697): 0.6247 and 0.4843 and 0.4623 and 0.5542 and 0.4673 and 0.4013 and 0.468 and 0.4244 | VLZ Allosteric Potency SERT WT, [3H]IMI dissociation (Fig. 2C) ([1]; Log[VLZ] (M) -8.29409): 0.894 and 0.6671 and 0.6226 and 0.8075 and 0.7294 and 0.5156 and 0.7279 and 0.5418 | VLZ Allosteric Potency SERT WT, [3H]IMI dissociation (Fig. 2C) ([1]; Log[VLZ] (M) -8.77121): 0.9289 and 0.7744 and 0.7519 and 0.85 and 0.8487 and 0.773 and 0.7182 and 0.7591 | [3H]5-HT uptake (Fig. 2A [3H]5-HT Vmax) ([2]; 1.0 nM VLZ, 5-HT 1000 nM): 49.0825 and 65.883 and 64.0163 | [3H]5-HT uptake (Fig. 2A [3H]5-HT Vmax) ([2]; 1.0 nM VLZ, 5-HT 2000 nM): 61.0408 and 86.9627 and 62.7549 | [3H]5-HT uptake (Fig. 2A [3H]5-HT Vmax) ([2]; 1.0 nM VLZ, 5-HT 3000 nM): 66.441 and 97.8152 and 78.0502 | [3H]5-HT uptake (Fig. 2A [3H]5-HT Vmax) ([2]; 3.0 nM VLZ, 5-HT 1000 nM): 33.7847 and 41.1475 and 28.2118 and 48.6535 | [3H]5-HT uptake (Fig. 2A [3H]5-HT Vmax) ([2]; 3.0 nM VLZ, 5-HT 2000 nM): 43.7743 and 51.4964 and 36.278 and 58.2653 | [3H]5-HT uptake (Fig. 2A [3H]5-HT Vmax) ([2]; 3.0 nM VLZ, 5-HT 3000 nM): 47.6029 and 61.8621 and 42.6502 and 66.7813 | [3H]5-HT uptake (Fig. 2A [3H]5-HT Vmax) ([2]; 3.8 nM VLZ, 5-HT 1000 nM): 22.8758 and 41.0675 and 31.8704 and 40.9164 and 22.5758 and 39.1234 | [3H]5-HT uptake (Fig. 2A [3H]5-HT Vmax) ([2]; 3.8 nM VLZ, 5-HT 2000 nM): 38.6315 and 55.6912 and 34.4535 and 55.6242 and 30.4203 and 47.6358 | [3H]5-HT uptake (Fig. 2A [3H]5-HT Vmax) ([2]; 3.8 nM VLZ, 5-HT 3000 nM): 63.6765 and 45.9269 and 61.6646 and 33.1434 and 58.1985 | [3H]5-HT uptake (Fig. 2A [3H]5-HT Vmax) ([2]; 6.0 nM VLZ, 5-HT 1000 nM): 12.5099 and 7.037 and 21.7589 | [3H]5-HT uptake (Fig. 2A [3H]5-HT Vmax) ([2]; 6.0 nM VLZ, 5-HT 2000 nM): 13.9352 and 18.4437 | [3H]5-HT uptake (Fig. 2A [3H]5-HT Vmax) ([2]; 6.0 nM VLZ, 5-HT 3000 nM): 16.6938 and 13.3777 | [3H]5-HT uptake (Fig. 2A [3H]5-HT Vmax) ([2]; 7.5 nM VLZ, 5-HT 1000 nM): 14.9918 and 20.7791 and 1.755 and 5.881 and 9.304 | [3H]5-HT uptake (Fig. 2A [3H]5-HT Vmax) ([2]; 7.5 nM VLZ, 5-HT 2000 nM): 20.8007 and 29.8638 and 2.631 and 9.704 | [3H]5-HT uptake (Fig. 2A [3H]5-HT Vmax) ([2]; 7.5 nM VLZ, 5-HT 3000 nM): 31.591 and 10.2272 and 13.2803 | [3H]5-HT uptake (Fig. 2A [3H]5-HT Vmax) ([2]; 10 nM VLZ, 5-HT 1000 nM): 11.1656 and 2.348 and 1.555 and 4.995 | [3H]5-HT uptake (Fig. 2A [3H]5-HT Vmax) ([2]; 10 nM VLZ, 5-HT 2000 nM): 17.8898 and 3.041 and 8.84 and 7.029 and 9.965 | [3H]5-HT uptake (Fig. 2A [3H]5-HT Vmax) ([2]; 10 nM VLZ, 5-HT 3000 nM): 19.1566 and 3.978 and 3.024 | [3H]5-HT uptake (Fig. 2A [3H]5-HT Vmax) ([2]; 15 nM VLZ, 5-HT 1000 nM): 1.871 and 1.697 and 1.083 and 0.6379 and 0.8401 and 1.916 | [3H]5-HT uptake (Fig. 2A [3H]5-HT Vmax) ([2]; 15 nM VLZ, 5-HT 2000 nM): 3.689 and 3.04 and 2.083 and 1.212 and 1.597 and 2.763 | Mode of inhibition of [3H]5-HT transport ([2]; VLZ 0–15 nM): non-competitive | 5-HT VMAX (in % of no VLZ) ([2]; VLZ 1 nM): 93 ± 13% | 5-HT VMAX (in % of no VLZ) ([2]; VLZ 3.0 nM): 66 ± 10% | 5-HT VMAX (in % of no VLZ) ([2]; VLZ 3.8 nM): 72 ± 17% | 5-HT VMAX (in % of no VLZ) ([2]; VLZ 6.0 nM): 21 ± 6% | 5-HT VMAX (in % of no VLZ) ([2]; VLZ 7.5 nM): 18 ± 8% | 5-HT VMAX (in % of no VLZ) ([2]; VLZ 10 nM): 11 ± 5% | 5-HT VMAX (in % of no VLZ) ([2]; VLZ 15 nM): 3.4 ± 1.2% | 5-HT VMAX (in % of no VLZ) ([2]; VLZ […]): 98 ± 10%
